The text below walks through data of patent publication US11230535B2, “CFTR regulators and methods of use thereof” (THE REGENTS OF THE UNIVERSITY OF CALIFORNIA, priority 2015, dated 2022).

Series [1] has as its system human bronchial epithelial (HBE) cells. As to the kind of experiment: Short-circuit current in primary human bronchial epithelial (HBE) cells. The format is cell-based. The following applies: for short-circuit current responses to ENaC, maximal forskolin or ATP: 10 μM, 10 min pretreatment. Here is the method: FIGS. 16A-16E. Characterization of 6k and 12. FIG. 16A. Cellular cAMP in FRT cells following incubation for 10 min with 10 μM 6k or 12, without or with 90 nM forskolin (fsk), as well as forskolin alone (90 nM and 20 μM) and forskolin (20 μM)+IBMX (100 μM) (mean±S.E.M., n=4). FIG. 16B. Cytoplasmic calcium measured by Fluo-4 fluorescence. FRT cells were pretreated for 5 min with 10 μM 6k or 12 (or control), with 100 μM ATP added as a calcium agonist as indicated. FIG. 16C. TMEM16A activity measured in FRT cells expressing YFP showing no inhibition (left, iodide+ATP addition) or activation (right, iodide addition) by 10 μM 6k or 12. FIG. 16D. […] FIG. 16E. (left) Short circuit-current in primary cultures of human bronchial epithelial cells in response to agonists and inhibitors that target key ion transport processes: 20 μM amiloride (ami); 20 μM forskolin (fsk); 10 μM CFTRinh-172; 100 μM ATP. Experiments were done without activator or following 10-min preincubation with 10 μM 6k or 12 (right). CFTR activation by 12 after 100 nM forskolin (20 μM amil, 10 μM CFTRinh-172, 100 μM ATP). Studies in B-E are representative of 2-4 separate sets of experiments.
Short-circuit current measurement. Short-circuit current measurements were done as described. Briefly, Snapwell (Corning Costar, Corning, N.Y.) inserts containing CFTR-expressing FRT cells or human bronchial epithelial cells were mounted in Ussing chambers (Physiological Instruments, San Diego, Calif.). For FRT cells the hemichambers were filled with 5 ml of HCO3^−-buffered solution (basolateral) and half-Cl^− solution (apical), and the basolateral membrane was permeabilized with 250 μg/ml amphotericin B. Symmetrical HCO3^−-buffered solutions were used for human bronchial epithelial cells. Solutions were bubbled with 95% O2/5% CO2 and maintained at 37° C., and short-circuit current was measured on a DVC-1000 voltage clamp (World Precision Instruments Inc., Sarasota, Fla.) using Ag/AgCl electrodes and 3 M KCl agar bridges.

In the next series the test system is cytoplasmic calcium. Kind of series: Cytoplasmic calcium by Fluo-4 fluorescence in FRT cells. The following applies: 10 μM; for inhibition of the ATP-stimulated elevation in cytoplasmic calcium: 100 μM ATP. The class given is cell-based, rat. Here is the method: (§1) cAMP and Ca^2+ assays. FRT cells expressing wildtype CFTR were cultured in 12-well plates. After washing with PBS, cells were incubated for 10 min with compounds in the absence or presence of 90 nM forskolin and then lysed. Lysates were assayed for cAMP content using a cAMP immunoassay kit (Parameter cAMP Immunoassay Kit, R&D Systems, Minneapolis, Minn.). For cytoplasmic calcium measurements, FRT cells in 96-well black-walled microplates were loaded with Fluo-4 NW (Invitrogen, Carlsbad, Calif.) and Fluo-4 fluorescence was measured with a plate reader equipped with syringe pumps and monochromators.

A further series concerns cAMP. As to the kind of experiment: Cellular cAMP immunoassay in CFTR-expressing FRT cells. The class given is cell-based, rat. Conditions: 10 μM, 10 min. Here is the method:
as §1

Series [2] is described as follows: Compound accumulation in systemic tissues after 14 days topical dosing. The format is in vivo, mouse. Conditions: for amount in mouse blood, brain, liver and kidney (below limit of detection): two weeks, three times per day topical 0.1 nmol.
The next series concerns mice. As to the kind of experiment: Ocular toxicity after chronic topical dosing (slit-lamp, lissamine green staining). The class given is in vivo. The following applies: two weeks, three times per day topical. Here is the method: (§2) To assess corneal epithelial disruption, 5 μL of lissamine green (LG) dye (1%) was applied to the ocular surface of isofluorane-anesthetized mice. Photographs of the eye were taken using a Nikon Digital camera adapted to an Olympus Zoom Stereo Microscope (Olympus, Center Valley, Pa., USA). Each corneal quadrant was scored on a 3-point scale by one blinded, trained observer, with the extent of staining in each quadrant classified as: 0, no staining; 1, sporadic (involving <25% of the total surface) staining; grade 2, diffuse punctate staining (25-75%); and grade 3, coalesced punctate staining (≥75%). The total grade is reported as the sum of scores from all four quadrants, ranging from 0 to 12.
as §2, with “Lissamine green staining. To” for “To”

Series [3] deals with BALB/c mice after lacrimal gland excision. Kind of series: Lacrimal gland excision (LGE) mouse model of aqueous-deficient dry eye. The class given is in vivo. Here is the method: as §2
A lacrimal gland excision (LGE) model of aqueous-deficient dry eye was adapted from a reported method (30). The extraorbital lacrimal gland was exposed on each side of wild-type female BALB/c mice (7-8 weeks of age) by 3-mm linear skin incisions. Lacrimal ducts were cauterized and the entire gland was removed bilaterally, avoiding facial vessels and nerves. Incisions were each closed with a single interrupted 6-0 silk suture. Orbital lacrimal tissue remained functional. Eyes with reduced corneal sensation (<5% of mice studied), as identified from neurotrophic corneal ulcers within 1 day of LGE, were excluded. Mice were randomized to receive either treatment (in both eyes) with CFTRact-K089 (0.1 nmol) or vehicle. Mice were treated three times daily (8 AM, 2 PM and 8 PM) for 2 weeks starting on Day 1 after LGE. Tear secretion and LG staining were performed immediately prior to, and one hour after the initial dose on day 4, 10 and 14 after LGE.
Lissamine green staining. […] Each corneal quadrant was scored on a 3-point scale by one blinded, trained observer, with the extent of staining in each quadrant classified as: 0, no staining; 1, sporadic (involving <25% of the total surface) staining; grade 2, diffuse punctate staining (25-75%); and grade 3, coalesced punctate staining (≥75%). […]

The mark [4] stands for this setting: 0.1 nmol topical three times daily.

“Also recorded” adds a separate entry of the source.

For the compound `CCN(CC)c1nc(Nc2ccc3ncsc3c2)nc(OC(C(F)(F)F)C(F)(F)F)n1` [6k, N′-(1,3-Benzothiazol-6-yl)-N,N-diethyl-6-[(1,1,1,3,3,3-hexafluoropropan-2-yl)oxy]-1,3,5-triazine-2,4-diamine], the “short-circuit current responses to ENaC, maximal forskolin or ATP” value in series [1] is on record as “did not alter short-circuit current responses”. Further, in the series with cytoplasmic calcium, the “increase of cytoplasmic calcium” value was “did not” and the “inhibition of the ATP-stimulated elevation in cytoplasmic calcium” value is listed as “did not”. Besides, the “cellular cAMP” value in the series with cAMP is listed as “did not elevate cellular cAMP”.
With `Nc1ccc([N+](=O)[O-])cc1-c1nc2ccccc2n(Cc2ccccc2)c1=O` [CFTRact-J027, 3-(2-amino-5-nitrophenyl)-1-benzylquinoxalin-2(1H)-one], the “amount in mouse blood, brain, liver and kidney (below limit of detection)” value in series [2] is less than 700 fmol. Moreover, in the series on mice, the “LG staining after chronic dosing” value was “no corneal or conjunctival epithelial disruption” and the “ocular toxicity (slit-lamp: conjunctival hyperemia, anterior chamber inflammation, lens clarity)” value is “no signs of ocular toxicity”.
`CCN(CC)c1nc(Nc2ccccc2)nc(OC(C(F)(F)F)C(F)(F)F)n1` [CFTRact-K089, N,N-Diethyl-6-[(1,1,1,3,3,3-hexafluoropropan-2-yl)oxy]-N′-phenyl-1,3,5-triazine-2,4-diamine]: in series [2] (topical), the “systemic absorption, in words” value is given as “without detectable systemic absorption”. Also, the “amount in mouse blood, brain, liver and kidney (below limit of detection)” value in series [2] was less than 10 fmol. The compound also registered an LG score change in series [3] (0.1 nmol three times daily, by Day 14, 12-point scale) of −0.6±0.6. Further, in series [3] (setting [4]), the “corneal / ocular surface epithelial disruption after LGE” value is on record as “fully prevented the corneal epithelial disruption; also recorded: prevented ocular surface epithelial disruption at all time points” and the “tear secretion / tear volume after LGE” value is “restored tear secretion to basal levels; also recorded: maintained basal tear volume”. In the series with mice, the “LG staining after chronic dosing” value was “no corneal or conjunctival epithelial disruption” and the “ocular toxicity (slit-lamp: conjunctival hyperemia, anterior chamber inflammation, lens clarity)” value is on record as “no signs of ocular toxicity”.
`CNc1nc(Nc2ccccc2)nc(OCC(F)(F)C(F)F)n1` [compound 12, N-methyl-N′-phenyl-6-(2,2,3,3-tetrafluoropropoxy)-1,3,5-triazine-2,4-diamine]: the “CFTR activation in HBE cells after forskolin” value in series [1] (0.1 μM, following 100 nM forskolin) is listed as “fully activated CFTR”. For the same compound, the “short-circuit current responses to ENaC, maximal forskolin or ATP” value in series [1] is “did not alter short-circuit current responses”. In addition, the “CFTR activation in HBE cells without forskolin” value in series [1] (absence of basal CFTR phosphorylation) is listed as “did not activate CFTR”. Also, in the series on cytoplasmic calcium, the “increase of cytoplasmic calcium” value was “without causing cAMP or calcium elevation; also recorded: did not” and the “inhibition of the ATP-stimulated elevation in cytoplasmic calcium” value is listed as “did not”. Further, the “cellular cAMP” value in the series with cAMP is “without causing cAMP or calcium elevation; also recorded: did not elevate cellular cAMP”.
